We go through 11 compounds from patent publication US20120165319A1, “INHIBITORS OF INTERLEUKIN-1 BETA CONVERTING ENZYME” (VERTEX PHARMACEUTICALS INCORPORATED, priority 1995, published 2012).

The structures appear in SMILES notation. Where two headings read alike, the source gives them in different places.

One series deals with T1, ICE (Homo sapiens, UniProt P29466).
T1 sequence (P29466 120-297 limits assumed): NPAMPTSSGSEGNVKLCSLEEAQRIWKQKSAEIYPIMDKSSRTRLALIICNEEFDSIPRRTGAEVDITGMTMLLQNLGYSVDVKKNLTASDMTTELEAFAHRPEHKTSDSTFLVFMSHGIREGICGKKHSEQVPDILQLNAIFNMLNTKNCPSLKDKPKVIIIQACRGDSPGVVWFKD
T1 sequence (P29466 317-404 limits assumed): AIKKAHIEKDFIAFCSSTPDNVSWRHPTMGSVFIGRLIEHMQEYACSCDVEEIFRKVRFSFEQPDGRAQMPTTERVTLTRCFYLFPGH
Put plainly: Enzyme assay with UV-visible substrate (visible ICE assay, Succinyl-Tyr-Val-Ala-Asp-pNitroanilide). In kind it is biochemical. The method, boiled down:
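Read-out is the rate of pNA chromophore release (mOD/min, linear fit) monitored at 405-603 nm over 20 min at 37° C. Substrate was succinyl-Tyr-Val-Ala-Asp-pNitroanilide, added after a 15 min room-temperature preincubation of ICE with inhibitor.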

The test system of series [1] is IL-1β, human peripheral blood mononuclear cells (PBMC). Put plainly: PBMC cell assay: IL-1β assay with human PBMC or enriched adherent mononuclear cells, LPS-stimulated. The format is cell-based. Conditions: Homo sapiens, PBMC. The method, boiled down:
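Buffy-coat human PBMC at 6×10^6 cells/ml, or adherent monocytes enriched by 1 h adherence (2.5−3.0×10^5 cells/well), are given 5–6 compound dilutions bracketing the ICE Ki (final DMSO 0.1%) plus LPS at a final 5 ng/ml. They are incubated 16–18 hr at 37 °C, 5% CO2, and supernatant mature IL-1β is measured by ELISA, with duplicate cultures and duplicate ELISAs.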

The nature of series [2]: Pharmacokinetic studies in the mouse (i.v. clearance, plasma levels). In kind it is in vivo. Conditions: CD-1, plasma, iv, mouse, 25 mg/kg. As for the experimental part:
Pharmacokinetic Studies in the Mouse
Sample Preparation and Dosing
Compounds were dissolved in sterile TRIS solution (0.02M or 0.05M) at a concentration of 2.5 mg/ml. Where necessary to ensure a complete solution, the sample was first dissolved in a minimum of dimethylacetamide (maximum of 5% of total solution volume) then diluted with the TRIS solution.
The drug solution was administered to CD-1 mice (Charles River Laboratories—26-31 g) via the tail vein at a dose volume of 10 ml/kg giving a drug dose of 25 mg/kg.
Mice were dosed in groups of 5 for each timepoint (generally from 2 minutes to 2 hours) then at the appropriate time the animals were anaesthetised with halothane and the blood collected into individual heparinized tubes by jugular severance. The blood samples were cooled to 0° C. then the plasma separated and stored at −20° C. until assayed.
Drug concentration in the plasma samples were determined by HPLC analysis with UV or MS (ESP) detection. Reverse phase chromatography was employed using a variety of bonded phases from C1 to C18 with eluents composed of aqueous buffer/acetonitrile mixtures run under isocratic conditions.
Quantitation was by external standard methods with calibration curves constructed by spiking plasma with drug solutions to give concentrations in the range of 0.5 to 50 μg/ml.
Prior to analysis the plasma samples were deproteinated by the addition of acetonitrile, methanol, trichloroacetic acid or perchloric acid followed by centrifugation at 10,000 g for 10 minutes. Sample volumes of 20 μl to 50 μl were injected for analysis.
The drug was dissolved in sterile 0.02M Tris to give a 2.5 mg/ml solution which was administered to […] of 5 male CD-1 mice via the tail vein at a dose of 25 mg/kg. At each of the following timepoints: 2, 5, 10, 15, 20, 30, 45, 60, 90 and 120 minutes a group of animals was anaesthetised and the blood collected into heparinized tubes. After separation the plasma was stored at −20° C. until assayed.
Aliquots of plasma (150 μl) were treated with 5% perchloric acid (5 μl) then mixed by vortexing and allowed to stand for 90 minutes prior to centrifugation. The resulting supernatant was separated and 20 μl was injected for HPLC analysis.
Aliquots of plasma (100 μl) were diluted with acetonitrile (100 μl) then mixed by vortexing for 20 seconds before centrifugation for 10 minutes. The resulting supernatant was separated and 20 μl was injected for HPLC analysis.

In a further series the test system is IL-1β, human whole blood. Put plainly: Whole blood assay for IL-1β production. In kind it is cell-based. As to conditions: Homo sapiens, Table 17; read-out: Whole human blood IC50. An outline of the steps:
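Human whole blood collected on Na2EDTA was treated with serially diluted compound in saline and then stimulated with LPS at 5.0 ng/ml final, for 16-18 h at 30 °C, in duplicate or triplicate. Plasma IL-1β was measured by ELISA at 1:200 dilution.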

Series [3] deals with IL-1β production, LPS-challenged mice. Put plainly: In vivo acute assay for efficacy as anti-inflammatory agent: LPS-induced IL-1β production in mice. Further details: species or system mouse. Conditions: Mus musculus, po, LPS challenged mice, compound PO, 50 mg/kg, read-out: percent inhibition of IL-1β production. The method, boiled down: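 CD1 mice (n=6) were challenged with LPS 20 mg/kg IP and given compound IP in olive oil:DMSO:ethanol (90:5:5) 1 h after LPS, or at the time of challenge for some analogs. Blood was taken 7 h after LPS and serum IL-1β was measured by ELISA. Oral gavage at 50 mg/kg was also tested.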

Series [4] is described as follows: In vivo rat clearance assay. As to conditions: plasma, iv, 10-20 mg/kg. As for the experimental part: In Vivo Rat Clearance Assay
Cannulations of the jugular and carotid vessels of rats under anesthesia were performed one day prior to the pharmacokinetic study. M. J. Free, R. A. Jaffee; ‘Cannulation techniques for the collection blood and other bodily fluids’; in: Animal Models; p. 480-495; N. J. Alexander, Ed.; Academic Press; (1978). Drug (10 mg/mL) was administered via the jugular vein in a vehicle usually consisting of: propylene glycol/saline, containing 100 mM sodium bicarbonate in a 1:1 ratio. Animals were dosed with 10-20 mg drug/kg and blood samples were drawn at 0, 2, 5, 7, 10, 15, 20, 30, 60, and 90 minutes from an indwelling carotid catheter. The blood was centrifuged to plasma and stored at −20° C. until analysis. Pharmacokinetic analysis of data was performed by non-linear regression using standard software such as RStrip (MicroMath Software, UT) and/or Pcnonlin (SCI Software, NC) to obtain clearance values.
Rat plasma was extracted with an equal volume of acetonitrile (containing 0.1% TFA). Samples were then centrifuged at approximately 1,000×g and the supernatant analyzed by gradient HPLC. A typical assay procedure is described below.
A standard curve was run at 20, 10, 5, 2 and 1 μg/mL concentrations.

[5] abbreviates: * = values obtained upon reassay.
[6] abbreviates: 0 h, administered 0 h relative to time of LPS challenge.
The mark [7] stands for this setting: 2 h, administered −2 h relative to time of LPS challenge.

Regarding `CC(=O)N1C[C@H](NC(=O)c2ccccc2)C(=O)N(CC(=O)N[C@H](C=O)CC(=O)O)c2ccccc21` [Compound 605d, (3S)-3-[(3S)-2-Oxo-3-benzoylamino-5-acetyl-2,3,4,5-tetrahydro-1H-1,5-benzodiazepin-1-acetylamino]-4-oxo-butyric acid], the affinity at ICE (Table 5) corresponds to a Ki of 95 nM. The compound further returned a concentration for half-maximal inhibition (IC50) in series [1] (setting [5]) of 5100 nM. In series [2], the clearance came to 33 mL/min/kg.
For the compound `CC(=O)Nc1ccc(C(=O)N[C@H]2CCC(=O)N3CCC[C@@H](C(=O)N[C@H]4CC(=O)OC4OCc4ccccc4)N3C2=O)cc1` (stereo partly drawn) [Compound 213x, [1S,9S(2RS,3S)]9-[4-(Acetylamino)benzoylamino]-N-(2-benzyloxy-5-oxo-tetrahydrofuran-3-yl)-6,10-dioxo-1,2,3,4,7,8,9,10-octahydro-6H-pyridazino[1,2-a][1,2]diazepine-1-carboximide], the melting point is 150 to 170 °C. This compound registered a half-maximal inhibitory concentration (IC50) in series [1] (Table 17) of 4500 nM. In the series with IL-1β, human whole blood, the 50% inhibitory concentration (IC50) worked out at 2500 nM. Further, the inhibition at 50 mg/kg in series [3] (setting [6]) was found to be 78%. Besides, the inhibition at 50 mg/kg in series [3] (setting [7]) is 0%.
On to `O=C[C@H](CC(=O)O)NC(=O)CN1C(=O)[C@@H](NC(=O)c2ccccc2)CN(C(=O)c2ccccc2)c2ccccc21` [Compound 605c, (3S)-3-[(3S)-2-Oxo-3-benzoylamino-5-benzoyl-2,3,4,5-tetrahydro-1H-1,5-benzodiazepin-1-acetylamino]-4-oxo-butyric acid], for which, at ICE (Table 5), the inhibition constant (Ki) was determined as 615 nM. The compound further had a half-maximal inhibitory concentration (IC50) in series [1] (setting [5]) of 4500 nM. In series [2], this compound came in with a clearance of 37 mL/min/kg.
`COC(=O)N1C[C@H](NC(=O)c2ccccc2)C(=O)N(CC(=O)N[C@H](C=O)CC(=O)O)c2ccccc21` [Compound 605j, (3S)-3-[(3S)-2-Oxo-3-benzoylamino-5-methoxycarbonyl-2,3,4,5-tetrahydro-1H-1,5-benzodiazepin-1-acetylamino]-4-oxo-butyric acid]: the affinity on ICE (Table 5), expressed as Ki, was 110 nM. The same compound came in with a concentration for half-maximal inhibition (IC50) in series [1] (setting [5]) of 8750 nM. The same compound registered a clearance in series [2] of 71 mL/min/kg.
On the same counts, the results for `O=C[C@H](CC(=O)O)NC(=O)CN1C(=O)[C@@H](NC(=O)c2ccccc2)CN(C(=O)Cc2ccccc2)c2ccccc21` [Compound 605b, (3S)-3-[(3S)-2-Oxo-3-benzoylamino-5-phenylacetyl-2,3,4,5-tetrahydro-1H-1,5-benzodiazepin-1-acetylamino]-4-oxo-butyric acid] are 45 nM, 10000 nM and 97 mL/min/kg.
Consider `O=C(O)C[C@H](NC(=O)[C@@H]1CCCN2C(=O)CC[C@H](NC(=O)c3ccccc3)C(=O)N12)C(=O)CSc1nccs1` [Compound 510a, [3S(1S,9S)]3-(9-Benzoylamino-6,10-dioxo-1,2,3,4,7,8,9,10-octahydro-6H-pyridazino[1,2-a][1,2]diazepine-1-carboxamido)-5-(2-mercaptothiazole)-4-oxopentanoic acid], for which the inhibition constant (Ki) at ICE (Table 17) is 65 nM. In addition, 200 nM corresponded to half-maximal inhibition in series [1] (Table 17) (IC50). In series [2] (Table 17), this compound gave a clearance of 267 mL/min/kg.
Regarding `O=C(O)CC(NC(=O)Cn1c(Cc2ccccc2)ccc(NC(=O)CCc2ccccc2)c1=O)C(=O)COC(=O)c1c(Cl)cccc1Cl` (stereo not drawn) [Compound 57b, N-2-(6-Benzyl-1,2-dihydro-2-oxo-3-(3-phenylpropionyl)amino-1-pyridyl)acetyl-3-amino-5-(2,6-dichloro-benzoyloxy)-4-oxo-pentanoic acid], the melting point was 116 to 120 °C (dec.).
The compound `O=C(O)C[C@H](NC(=O)[C@@H]1CCCN2C(=O)CC[C@H](NC(=O)c3ccccc3)C(=O)N12)C(=O)Cn1cnccc1=O` [Compound 510d, [3S(1S,9S)]3-[6,10-Dioxo-1,2,3,4,7,8,9,10-octahydro-9-(phenycarbonylamino)-6H-pyridazino[1,2-a][1,2]diazepine-1-carboxamido]-4-oxo-5-{2-[4(3H)-pyrimidone]}pentanoic acid] gave a melting point of 140 to 180 °C. In addition, the Ki at ICE (Table 17) is 2300 nM. This compound also came in with a half-maximal inhibitory concentration (IC50) in series [1] (Table 17) above 20000 nM.
In turn, `CC(=O)Nc1ccc(C(=O)N[C@H]2CCC(=O)N3CCC[C@@H](C(=O)N[C@H](C=O)CC(=O)O)N3C2=O)cc1` [Compound 418] displayed a Ki at ICE (Table 5) of 2.2 nM. In addition, the clearance in series [2] stood at 13 mL/min/kg; in series [4] it was 5.9 mL/min/kg. In addition, the inhibition at 50 mg/kg in series [3] (setting [6]) was 52%; in series [3] (1 h, administered +1 h relative to time of LPS challenge) it was 64%; in series [3] (setting [7]), 25%.
In the case of `O=C[C@H](CC(=O)O)NC(=O)[C@@H]1CCCN2C(=O)CCN(NS(=O)(=O)c3ccc4ccccc4c3)C(=O)N12` [Compound 265a, [3S(4 S)]3-[6,10-Dioxo-7-(2-naphthalenesulfonyl)amino-1,2,3,4,7,8,9,10-octahydro-6H-pyridazino[1,2-a][1,2,4]triazepine-4-carboxamido]-4-oxobutanoic acid], the melting point is 126 to 130 °C (dec.). In addition, the affinity at ICE (Table 17), expressed as Ki, was 2600 nM. The compound also had a 50% inhibitory concentration (IC50) in series [1] (Table 17) of 25000 nM.
Regarding `CS(=O)(=O)N[C@H]1CCC(=O)N2CCC[C@@H](C(=O)N[C@@H](CC(=O)O)C(=O)c3nc4cc(Cl)cc(Cl)c4o3)N2C1=O` [Compound 223b, [3S(1S,9S)]-4-(5,7-Dichlorobenzoxazol-2-yl)-3-(6,10-dioxo-9-methylsulphonylamino-1,2,3,4,7,8,9,10-octahydro-6H-pyridazino[1,2-a][1,2]diazepine-1-carboxamido)-4-oxobutanoic acid], the Ki on ICE (Table 5) is 99 nM. The compound also showed a concentration for half-maximal inhibition (IC50) in series [1] (setting [5]) of 5000 nM. This compound also came in with a clearance in series [2] above 100 mL/min/kg.

One may read the Ki as the dissociation constant of the complex between target and ligand, obtained from inhibition or displacement. A lower Ki goes with higher affinity. The IC50 is the concentration at which inhibition is half-maximal. As usually defined, the clearance is a measure of how efficiently the substance is removed, as volume per time. Read a low clearance as inefficient removal. The inhibition is the relative decrease from the control value, in per cent. A word on the melting point: it is the temperature, or range, at which the solid turns liquid.
